Experimental data from paper PMC8607231, “Generation of KS-133 as a Novel Bicyclic Peptide with a Potent and Selective VIPR2 Antagonist Activity that Counteracts Cognitive Decline in a Mouse Model of Psychiatric Disorders” (Frontiers in Pharmacology, 2021).
Where a SMILES comes first, the peptide text is derived from it. Bridges are numbered along the chain shown (N, C = ends).

Key:
[1] = system: mouse model of psychiatric disorders on the basis of early postnatal activation of VIPR2; assay: Novel object recognition test in mouse model of early postnatal activation of VIPR2; type: in vivo; conditions: KS-133 1 nmol/g s.c. simultaneously with Ro 25-1553 0.07 nmol/g, P1-14
Experimental: For behavioral experiments, all litters were randomly divided into Ro 25-1553- and PBS-treated groups. From P1 to P14, mice were injected s.c. once daily with Ro 25-1553 at a dose of 0.07 nmol/g ([Ago et al., 2015]). Mice treated with PBS from P1 to P14 were used as the control. KS-133 or the vehicle was simultaneously injected with Ro 25-1553 or PBS. Animals were weaned at P21 and divided by gender at P28. We used male mice exclusively to minimize any potential variability due to sex-specific effects on behavioral performance. All groups were derived from at least four different litters to preclude possible differences in individual maternal behaviors as a mitigating factor in any subsequent long-lasting changes induced in the offspring. […]
The novel object recognition test was carried out in accordance with previous reports ([Takuma et al., 2014]; [Hara et al., 2016]). […] The exploration time for each object in the retention session was measured with a stopwatch. […]
FIGURE 5 Effects of early postnatal treatment with Ro 25-1553 and KS-133 on recognition memory in the novel object recognition test. […] (B) Discrimination index (%) was calculated as the difference between novel and familiar object exploration times divided by the total time spent exploring the two objects. Results are expressed as the mean ± S.E.M. of 15–20 mice per group. **p < 0.01.

human VIPR2 [2] = molecular target: T1, human VIPR2 (Homo sapiens, UniProt P41587); assay: HitHunter cAMP assay, antagonist mode; type: cell-based
T1 construct: host or cells: CHO-K1
T1 sequence (P41587 24-438): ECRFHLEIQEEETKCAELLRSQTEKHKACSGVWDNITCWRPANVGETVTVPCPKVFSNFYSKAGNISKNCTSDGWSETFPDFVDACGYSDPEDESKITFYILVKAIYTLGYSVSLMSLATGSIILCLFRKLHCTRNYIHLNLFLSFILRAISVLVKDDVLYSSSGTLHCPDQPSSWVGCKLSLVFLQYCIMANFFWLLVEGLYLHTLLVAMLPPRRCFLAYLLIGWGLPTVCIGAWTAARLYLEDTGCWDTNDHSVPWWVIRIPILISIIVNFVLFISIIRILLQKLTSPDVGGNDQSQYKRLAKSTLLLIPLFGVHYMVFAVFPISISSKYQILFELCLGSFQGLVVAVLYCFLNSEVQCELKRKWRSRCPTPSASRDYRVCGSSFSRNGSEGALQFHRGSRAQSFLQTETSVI
Experimental: (§1) Evaluation of antagonist activities of peptides against VIP-VIPR1, VIP-VIPR2, and PACAP-PAC1 signaling pathways and agonistic activity of KS-133 at VIPR2 was carried out by Eurofins DiscoverX (Fremont, CA, United States). Intracellular calcium mobilization was monitored using a calcium-sensitive dye loaded in CHO-K1 cells expressing human VIPR1 (ITEM 86-0030P-2243AN), VIPR2 (ITEM 86-0030P-2244AN), and PAC1 (ITEM 86-0030P-2066AN). The cells were preincubated with antagonistic peptides for 30 min at room temperature in the dark. After addition of the ligand at EC80, calcium mobilization was immediately monitored by FLIPR Tetra for 2 min. Cyclic AMP production in CHO-K1 cells expressing human VIPR2 was evaluated using HitHunter® cAMP assays (antagonist mode: ITEM 86-0007P-2362AN; agonist mode: ITEM 86-0007P-2362AG). […] Cells were lysed and the cAMP content of the cell lysate was determined by the β-galactosidase-based enzyme fragment complementation assay ([Eglen, 2002]). […]
(§2) FIGURE 3 Antagonistic/agonistic activities of peptides in the calcium influx and cAMP assays. […] In the calcium influx assay, after addition of ligand at EC80, calcium mobilization was monitored immediately (see details in the Methods section) (n = 4 wells for each treatment). […]
(§3) Next, antagonistic and agonistic activities of KS-133 at VIPR2 were evaluated by a cAMP assay. […]

human VIPR2 [3] = molecular target: T1, human VIPR2; assay: HitHunter cAMP assay, agonist mode; type: cell-based
Experimental: as §1, §2, §3

## CC[C@H](C)[C@H](NC(=O)[C@H](CC(C)C)NC(=O)[C@@H]1CC(=O)NCCCC[C@@H]2NC(=O)[C@@H]3CCCN3C(=O)[C@H](CC(C)C)NC(=O)[C@H](Cc3ccc(O)cc3)NC(=O)[C@@H]3CCCN3C(=O)[C@@H]3CCCN3C(=O)[C@@H](NC(C)=O)CSSC[C@H](NC(=O)[C@H](CC(C)C)NC(=O)[C@H](Cc3ccc(O)cc3)NC2=O)C(=O)N1)C(N)=O [KS-133, Ac-c[Cys-Pro-Pro-Tyr-Leu-Pro-c(Lys-Tyr-Leu-Cys]-Asp)-Leu-Ile-NH2] (Ac-CPPYLPKYLCDLI-NH2; disulfide 1-10; lactam 7-11)
[1]
  Effect on Ro 25-1553-induced recognition memory deficit, novel object recognition test: attenuated the decreases in the difference of time spent exploring each object and cognitive dysfunction
Human VIPR2 [2]; cAMP assay
  Antagonism of VIP-VIPR2 signaling pathway: antagonized VIP-VIPR2 signaling pathway in a peptide concentration-dependent manner
Human VIPR2 [2]; ligand VIP (0.5 nM) at EC80, CHO-K1 cells, n = 4 wells, ± S.E.M
  IC50: 500 ± 79 nM
Human VIPR2 [3]; agonist mode, CHO-K1 cells
  cAMP assay (nM) Agonistic activity VIPR2: >5,000 nM
Human VIPR2 [3]; cAMP assay, at high concentration of 5 μM
  VIPR2 agonist activity: did not exhibit VIPR2 agonist activity
